# Measured values from patent US20080064667A1, “OXAZOLE DERIVATIVES OF TETRACYCLINES” (Wyeth, priority 2003, published 2008).
# How the values were obtained:
# Experiment in all cases: MIC, broth microdilution (NCCLS)
# Assay type in all cases: cell-based
# [1] = system: C. albicans GC3066 ATCC (Control); details: Candida albicans, Mueller-Hinton II broth, 18-22 hours at 35° C.
# E. coli GC1073 (tet(B)) = details: Escherichia coli
# Procedure, shortened: (§1)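 MICs determined in cation-standard Mueller-Hinton II broth with serial drug dilutions, each strain inoculated to 10^5 CFU/ml. Incubation: 35 °C, ambient air, 18-22 h, following NCCLS broth microdilution guidance.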
# [2] = system: E. coli GC2203 (ATCC Control); details: Escherichia coli, Mueller-Hinton II broth, 18-22 hours at 35° C.
# Procedure, shortened: as §1
# E. coli GC2270 (tet(M)) = details: Escherichia coli
# Procedure, shortened: as §1
# [3] = system: E. coli GC4559 (parent GC4560); details: Escherichia coli, Mueller-Hinton II broth, 18-22 hours at 35° C.
# Procedure, shortened: as §1
# [4] = system: E. coli GC4560 (IMP mutant); details: Escherichia coli
# Procedure, shortened: as §1
# [5] = system: E. faecalis GC2242 (Van-resistant); details: Enterococcus faecalis, Mueller-Hinton II broth, 18-22 hours at 35° C.
# Procedure, shortened: as §1
# [6] = system: E. faecalis GC2267 (tet(L) + (M) + (S)); details: Enterococcus faecalis
# Procedure, shortened: as §1
# [7] = system: E. faecalis GC4555 (ATCC Control); details: Enterococcus faecalis, Mueller-Hinton II broth, 18-22 hours at 35° C.
# Procedure, shortened: as §1
# [8] = system: H. influenzae<> GC6896 (ATCC Control); details: Haemophilus influenzae, Mueller-Hinton II broth, 18-22 hours at 35° C.
# Procedure, shortened: as §1
# [9] = system: M. catarrhalis* GC6907 (Clinical); details: Moraxella catarrhalis, Mueller-Hinton II broth, 18-22 hours at 35° C.
# Procedure, shortened: as §1
# [10] = system: S. aureus GC1079 (tet(K)); details: Staphylococcus aureus, Mueller-Hinton II broth, 18-22 hours at 35° C.
# Procedure, shortened: as §1
# [11] = system: S. aureus GC1131 (Clinical); details: Staphylococcus aureus, Mueller-Hinton II broth, 18-22 hours at 35° C.
# Procedure, shortened: as §1
# [12] = system: S. aureus GC2216 (ATCC Control); details: Staphylococcus aureus, Mueller-Hinton II broth, 18-22 hours at 35° C.
# Procedure, shortened: as §1
# [13] = system: S. aureus GC4536 (Smith MP -In Vivo); details: Staphylococcus aureus, Mueller-Hinton II broth, 18-22 hours at 35° C.
# Procedure, shortened: as §1
# [14] = system: S. aureus GC6466 (tet(M)); details: Staphylococcus aureus, Mueller-Hinton II broth, 18-22 hours at 35° C.
# Procedure, shortened: as §1
# [15] = system: S. pneumoniae* GC1894 (Clinical); details: Streptococcus pneumoniae, Mueller-Hinton II broth, 18-22 hours at 35° C.
# Procedure, shortened: as §1
# [16] = system: S. pneumoniae* GC4465 (Clinical); details: Streptococcus pneumoniae, Mueller-Hinton II broth, 18-22 hours at 35° C.
# Procedure, shortened: as §1
# [17] = system: S. pyogenes* GC4563 (Clinical); details: Streptococcus pyogenes, Mueller-Hinton II broth, 18-22 hours at 35° C.
# Procedure, shortened: as §1
# [18] = system: S. aureus GC6467 (tet(M) + (K)); details: Staphylococcus aureus
# Procedure, shortened: as §1
Structure (SMILES),MIC [1] [µg/mL],MIC (E. coli GC1073 (tet(B))) [µg/mL],MIC [2] [µg/mL],MIC (E. coli GC2270 (tet(M))) [µg/mL],MIC [3] [µg/mL],MIC [4] [µg/mL],MIC [5] [µg/mL],MIC [6] [µg/mL],MIC [7] [µg/mL],MIC [8] [µg/mL],MIC [9] [µg/mL],MIC [10] [µg/mL],MIC [11] [µg/mL],MIC [12] [µg/mL],MIC [13] [µg/mL],MIC [14] [µg/mL],MIC [15] [µg/mL],MIC [16] [µg/mL],MIC [17] [µg/mL],MIC [18] [µg/mL]
"CN(C)c1ccc(-c2nc3cc(N(C)C)c4c(c3o2)C(=O)C2=C(O)[C@]3(O)C(=O)C(C(N)=O)=C(O)[C@@H](N(C)C)[C@@H]3C[C@@H]2C4)cc1 [Example 8, (6aR,7aS,8S,11aS)-5,8-bis(dimethylamino)-2-[4-(dimethylamino)phenyl]-9,11a,12-trihydroxy-11,13-dioxo-6,6a,7,7a,8,11,11a,13-octahydrotetraceno[2,1-d][1,3]oxazole-10-carboxamide]",> 64,> 64,> 64,> 64,> 64,16,8,16,32,> 64,64,16,8,8,16,16,16,32,16,
"CN(C)c1cc2nc(-c3ccc(OCc4ccccc4)cc3)oc2c2c1C[C@H]1C[C@H]3[C@H](N(C)C)C(O)=C(C(N)=O)C(=O)[C@@]3(O)C(O)=C1C2=O [Example 11, (6aR,7aS,8S,11aS)-2-[4-(benzyloxy)phenyl]-5,8-bis(dimethylamino)-9,11a,12-trihydroxy-11,13-dioxo-6,6a,7,7a,8,11,11a,13-octahydrotetraceno[2,1-d](1,3]oxazole-10-carboxamide]",> 64,> 64,> 64,> 64,> 64,> 64,64,> 64,64,> 64,32,64,32,64,64,64,32,32,32,
"CN(C)c1cc2nc(-c3ccc4c(c3)OCO4)oc2c2c1C[C@H]1C[C@H]3[C@H](N(C)C)C(O)=C(C(N)=O)C(=O)[C@@]3(O)C(O)=C1C2=O [Example 14, (6aR,7aS,8S,11aS)-2-(1,3-benzodioxol-5-yl)-5,8-bis(dimethylamino)-9,11a,12-trihydroxy-11,13-dioxo-6,6a,7,7a,8,11,11a,13-octahydrotetraceno[2,1-d][1,3]oxazole-10-carboxamide]",> 64,> 64,> 64,> 64,> 64,16,4,,8,> 64,4,4,4,4,4,4,16,16,16,8
"CN(C)c1cc2nc(-c3ccsc3)oc2c2c1C[C@H]1C[C@H]3[C@H](N(C)C)C(O)=C(C(N)=O)C(=O)[C@@]3(O)C(O)=C1C2=O [Example 17, (6aR,7aS,8S,11aS)-5,8-bis(dimethylamino)-9,11a,12-trihydroxy-11,13-dioxo-2-thien-3-yl-6,6a,7,7a,8,11,11a,13-octahydrotetraceno[2,1-d][1,3]oxazole-10-carboxamide]",> 64,> 64,> 64,> 64,> 64,4,8,16,8,> 64,16,8,8,8,8,8,32,32,16,
"CC(=O)OCc1ccc(-c2nc3cc(N(C)C)c4c(c3o2)C(=O)C2=C(O)[C@]3(O)C(=O)C(C(N)=O)=C(O)[C@@H](N(C)C)[C@@H]3C[C@@H]2C4)o1 [Example 21, {5-[(6aR,7aS,8S,11aS)-10-(aminocarbonyl)-5,8-bis(dimethylamino)-9,11a,12-trihydroxy-11,13-dioxo-6,6a,7,7a,8,11,11a,13-octahydrotetraceno[2,1-d][1,3]oxazol-2-yl]-2-furyl}methyl acetate]",> 64,> 64,> 64,> 64,> 64,> 64,32,64,> 64,> 64,> 64,32,64,32,64,32,> 64,> 64,> 64,
"CN(C)Cc1nc2cc(N(C)C)c3c(c2o1)C(=O)C1=C(O)[C@]2(O)C(=O)C(C(N)=O)=C(O)[C@@H](N(C)C)[C@@H]2C[C@@H]1C3 [Example 36, (6aR,7aS,8S,11aS)-5,8-bis(dimethylamino)-2-[(dimethylamino)methyl]-9,11a,12-trihydroxy-11,13-dioxo-6,6a,7,7a,8,11,11a,13-octahydrotetraceno[2,1-d][1,3]oxazole-10-carboxamide]",> 64,,2,,4,1,4,,4,4,1,4,4,2,4,4,1,1,1,16
"CCCNCc1nc2cc(N(C)C)c3c(c2o1)C(=O)C1=C(O)[C@]2(O)C(=O)C(C(N)=O)=C(O)[C@@H](N(C)C)[C@@H]2C[C@@H]1C3 [Example 38, (6aR,7aS,8S,11aS)-5,8-bis(dimethylamino)-9,11a,12-trihydroxy-11,13-dioxo-2-[(propylamino)methyl]-6,6a,7,7a,8,11,11a,13-octahydrotetraceno[2,1-d][1,3]oxazole-10-carboxamide]",> 64,,32,,32,8,16,64,16,64,4,64,32,32,16,32,4,4,4,> 64
"CCCCNCc1nc2cc(N(C)C)c3c(c2o1)C(=O)C1=C(O)[C@]2(O)C(=O)C(C(N)=O)=C(O)[C@@H](N(C)C)[C@@H]2C[C@@H]1C3 [Example 39, (6aR,7aS,8S,11aS)-2-[(butylamino)methyl]-5,8-bis(dimethylamino)-9,11a,12-trihydroxy-11,13-dioxo-6,6a,7,7a,8,11,11a,13-octahydrotetraceno[2,1-d][1,3]oxazole-10-carboxamide]",> 64,,32,,32,8,32,64,32,64,8,64,32,32,32,32,8,8,8,> 64
